One test deals with T1, R50A/K54A mutant AtHMGB3 (Arabidopsis thaliana, UniProt P93047, K54A/R50A).
T1 construct: providing a full length Arabidopsis thaliana HMGB1 or HMGB3 (AtHMGB1 or AtHMGB3) protein; made in house
The experiment in a line: Callose deposition with mutant R50A/K54A AtHMGB3. The conditions noted are these: in vivo. How it is done:
Arabidopsis leaves were collected 15 h after infiltration with 100 nM AtHMGB3 or 100 nM Pep1, and then immediately immersed in alcoholic lactophenol (phenol:glycerol:lactic acid:water:ethanol=1:1:1:1:8) to destain the chlorophyll. To remove the background fluorescence, destained leaves were treated with toluidine blue O solution (0.05% toluidine blue O, 0.1 M sodium acetate, pH 4.4) for 30 min, and then rinsed twice with 150 mM K2HPO4 (pH 9.5). Callose was stained with aniline blue solution (0.02% aniline blue, 150 mM K2HPO4, pH 9.5) for 30 min in the absence of light. The aniline blue-stained leaves were mounted with 25% glycerol and analyzed using a Leica DM5500 epifluorescence microscope. The number of callose loci was quantified using an ImageJ (NIH).
Thus, these residues (R50 and K54) were mutated to Ala, and the resulting mutant AtHMGB3 tested for its ability to activate MPK3/6 and induce callose deposition in the absence or presence of SA. The R50A/K54A mutant AtHMGB3 retained its ability to activate MPK3/6 and induce callose deposition, but inhibition of these activities by SA was lost (FIG. 7H,I and FIG. 8).

Another test deals with T2, full-length HMGB1 (Homo sapiens, UniProt P09429).
T2 construct: (i) full length: residues 2-215; hexaHis (TEV-cleavable) (N, cleaved yes); made in house
T2 sequence (P09429 2-215): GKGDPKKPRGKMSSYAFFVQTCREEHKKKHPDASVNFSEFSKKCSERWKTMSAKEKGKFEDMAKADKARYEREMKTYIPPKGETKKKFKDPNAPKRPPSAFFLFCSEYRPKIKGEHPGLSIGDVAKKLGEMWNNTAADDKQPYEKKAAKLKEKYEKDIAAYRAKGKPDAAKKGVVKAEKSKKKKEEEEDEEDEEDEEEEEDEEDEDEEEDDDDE
The experiment in a line: WaterLOGSY NMR with HMGB1. In kind it is binding. As to conditions: 6 mM SA or 5 mM ac3AESA, 20 μM protein. The text has this:
NMR can be used to detect protein ligand interactions either by protein-detected experiments (Lepre, Moore et al. 2004), detecting changes in the frequencies of resonances of the protein sample due to ligand binding (protein-detected chemical shift perturbation (CSP) experiments), or by ligand-detected experiments (Lepre, Moore et al. 2004), in which NMR properties of the ligands due to ligand-protein interactions are detected. Protein-detected ligand binding experiments are usually done using isotope-enriched protein samples which can be studied by isotope-filtered NMR experiments, including for example ^15N-^1H-HSQC (Kay, Keifer et al. 1992). Ligand-detected experiments include the Waterlogsy experiment (Meyer and Peters 2003, Lepre, Moore et al. 2004, Furihata, Shimotakahara et al. 2008), which detects interactions in the ternary complex formed by the protein, the ligand, and one or more water molecules, and the Saturation Transfer Difference (STD) NMR experiments (Mayer and Meyer 2001, Lepre, Moore et al. 2004, Wang, Liu et al. 2004), which detects magnetization transfer from the protein to the ligand in the protein-ligand complex. The Waterlogsy experiment is a more sensitive experiment, typically employed to detect qualitatively if there is an interaction between protein and ligand. […]

A further test deals with T3, HMGB1^SS (Homo sapiens, UniProt P09429).
T3 construct: (i) full length: residues 2-215; 6x His (cleaved yes); made in house; host or cells: Escherichia coli BL21
T3 sequence (P09429 2-215): T2 sequence (P09429 2-215)
The experiment in a line: HMGB1^SS-induced cytokine and COX-2 gene expression in human macrophages (qPCR). In kind it is cell-based. As to conditions: 3 h, 100 μM SA or 1 μM ac3AESA. As for the experimental part:
Human HeLa cells were grown in T75 flasks in DMEM medium supplemented with penicillin (10,000 IU/mL) streptomycin ([…]), and 10% fetal calf serum. Ptgs2−/− MEFs were derived from Ptgs2−/− E16 mouse embryos, obtained from the mating of Ptgs2+/− mice purchased from Taconic Biosciences. PBMCs were isolated from buffy coats of donor blood (Hospital of Magenta, Milan, Italy) by Ficoll gradient centrifugation (Lymphoprep; AXIS-SHIELD. CD14+ monocytes were isolated by positive immunoselection (CD14 Microbeads; Miltenyi Biotec) according to the manufacturer's instructions, and differentiated into macrophages using X-Vivo medium supplemented with 1% heat inactivated human serum, GM-CSF, and M-CSF.
Macrophages were exposed to 3 μg/ml HMGB1^SS or 50 ng/ml LPS. Total RNAs were isolated using the Illustra RNAspin Mini kit (GE Healthcare), and complementary DNA (cDNA) was obtained by retro-transcription with oligo(dT) primers (Invitrogen, Carlsbad, Calif., USA) and SuperScript II Reverse Transcriptase (Invitrogen) following the manufacturers' instructions. Quantitative real-time PCR was performed using a LightCycler480 (Roche Molecular Diagnostics), in duplicates, using SYBR Green I master mix and the oligonucleotides listed in Table of primers below. The ΔCt method was used for quantification, and the β-actin gene was used for normalization.
(In qPCR the cycle at which signal appears reflects the starting amount.)

The target of a further test is T4, HMGB1 (Homo sapiens, UniProt P09429).
T4 construct: (i) full length: residues 2-215; 6x His (cleaved yes); made in house; host or cells: Escherichia coli BL21
T4 sequence (P09429 2-215): T2 sequence (P09429 2-215)
The experiment in a line: Photoaffinity labeling of HMGB1 with 4AzSA, competition by SA. In kind it is binding. The conditions noted are these: 0.1 mM 4AzSA, increasing concentrations of SA. How it is done:
HMGB1's SA-binding activity was then assessed using photoaffinity-crosslinking. Recombinant HMGB1 was pre-incubated with or without photoreactive 4-azido SA (4AzSA) before exposure to UV irradiation (FIG. 1B).

In a further test the target is T5, AtHMGB3 (Arabidopsis thaliana, UniProt P93047).
T5 sequence (P93047 1-141): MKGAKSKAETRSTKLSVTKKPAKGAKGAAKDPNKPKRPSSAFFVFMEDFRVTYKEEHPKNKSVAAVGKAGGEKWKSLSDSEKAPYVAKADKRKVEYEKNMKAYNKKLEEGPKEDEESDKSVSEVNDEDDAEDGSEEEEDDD
As to conditions: co-infiltration of 1-10 μM SA, 1 μM AtHMGB3. How it is done:
To detect the phosphorylation of Arabidopsis MAPKs (MPK3/4/6), 3 to 4 week-old soil grown Arabidopsis leaves were infiltrated with 1 μM AtHMGB3 or 1 μM Pep1 peptide ([…]; synthesized by GenScript USA Inc.). Two leaf disks were cut from the leaf center of two different leaves using a cork borer (diameter=0.7 cm) and immediately frozen and ground to fine powder in liquid nitrogen. […] The protein concentration of supernatant was measured using the Bradford reagent (Bio-Rad). Forty μg of proteins per sample was separated on the 8% SDS-PAGE and transferred to a PVDF membrane for immunoblotting using the anti-phospho-p44/42 MAPK antibody (Cell Signaling Technology). The large subunit of Rubisco was visualized by Coomassie Brilliant Blue (CBB) staining of the PVDF membrane in order to assess consistency of loading.

SMILES strings stand for the structures. “Also recorded” adds a separate entry of the source.

T1 sequence (P93047 whole entry R50A/K54A): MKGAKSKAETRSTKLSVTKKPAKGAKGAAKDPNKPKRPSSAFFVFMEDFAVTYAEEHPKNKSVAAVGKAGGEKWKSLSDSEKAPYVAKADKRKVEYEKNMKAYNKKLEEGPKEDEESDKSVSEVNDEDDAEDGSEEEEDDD

`O=C(O)c1ccccc1O` [SA, salicylic acid]: on R50A/K54A mutant AtHMGB3, the “inhibition by SA of callose deposition induced by R50A/K54A AtHMGB3” value is on record as “lost”. Moreover, the “WaterLOGSY binding to HMGB1” value on full-length HMGB1 was “binds”. Also, the “suppression of cytokine (IL-6, TNFα) and COX-2 expression induced by HMGB1^SS” value on HMGB1^SS is given as “partially or completely suppressed; also recorded: partially suppressed”. The “inhibition of crosslinking of 4AzSA to HMGB1” value on HMGB1 was “effectively inhibited crosslinking”. In addition, the “effect on MPK3/6 activation by AtHMGB3” value on AtHMGB3 is reported as “blocked”.

The record behind these values is US20180045715A1, “STRUCTURE AND FUNCTION OF THE SALICYCLIC ACID BINDING SITES ON HUMAN HMGB1 AND METHODS OF USE THEREOF FOR THE RATIONAL DESIGN OF BOTH SALICYCLIC ACID DERIVATIVES AND OTHER AGENTS THAT ALTER ANIMAL AND PLANT HMGBS ACTIVITIES” (Boyce Thompson Institute for Plant Research, Inc., priority 2015, published 2018).
